Reference: patent US20160137968A1, “TISSUE CULTURE TESTING SYSTEMS AND METHODS OF USE” (Barry University, priority 2014, published 2016)

Legend:
[1] = system: S. aureus; assay: Bioburden reduction in infected full-thickness skin tissue samples in Franz cells (total CFUs); format: cell-based, Staphylococcus aureus; conditions: 0.1 liters/minute
Source text: (§1) After an infection period is over, tissue samples can be homogenized, and serial dilutions can be grown on LB agar plates in order to facilitate the counting of colony formation units (CFUs), which approximate the level of bacteria present in the sample after infection. Other methods of quantifying infection and the various manifestations of infection are also possible, as would be recognized by one of ordinary skill in the art based on the present disclosure. For example, activation of various cytokines can be measured, as well as gene expression (upregulation and/or down regulation) of various genetic regulators of inflammatory and immune responses taking place in cells and tissues. These experimental procedures allow for the investigation of various experimental factors and perturbations, such as NO pressures, exposure times, and flow rates, in the context of skin infection and how they may influence bioburden reduction and wound healing.
(§2) In FIG. 4, the growth curves of several pathogenic bacteria are shown, including MRSA, Acinetobacter and Pseudomonas. In order to determine whether a given set of experimental factors or perturbations relating to NO exposure reduces bioburden, tissue samples were infected with the same concentration of bacteria under the same experimental conditions. […] In some aspects, 15 μl of a bacterial culture is sufficient to infect a cell or tissue sample.
(§3) Full-thickness skin tissue samples (e.g., EPIDERM tissue model from MatTek Corp., Ashland, Mass. 01721) were exposed to various experimental factors. […] The skin samples used were infected with S. aureus for 24 hours, followed by 90 minutes of pressurized exposure at a flow rate of 0.1 liters/minute.
(§4) The samples used were infected with Staphylococcus, MRSA, Acinetobacter or Pseudomonas.
(§5) Experiments were also conducted as described above in the previous examples to determine the minimum amount of exposure time necessary to obtain maximum reductions in bioburden. In some cases, determining the minimum tissue exposure time to gNO can reduce any potentially detrimental effects on the health of the tissue, while still reducing bioburden. Flow rate was maintained at 0.1 liters/minute, but the exposure time was shortened to 60 minutes at 1 ATM (independent of and in addition to the pressure applied by the external environment).
Experiments were also conducted as described above in the previous examples to determine the minimum amount of gNO pressure necessary to obtain maximum reductions in bioburden. In some cases, determining the minimum amount of gNO pressure can reduce any potentially detrimental effects on the health of the tissue, while still reducing bioburden.

[2] = system: A. baumannii; assay: as above; format: cell-based; conditions: 1 ATM, 0.1 liters/minute
Source text: as §1, §2, §3, §4, §5

[3] = system: MRSA; assay: as above; format: cell-based; conditions: 1 ATM, 0.1 liters/minute
Source text: as §1, §2, §3, §4, §5

[4] = system: P. aeruginosa; assay: as above; format: cell-based; conditions: 1 ATM, 0.1 liters/minute
Source text: as §1, §2, §3, §4, §5

[5] = system: full-thickness skin tissue samples; assay: Tissue viability using MTT assays; format: cell-based, human
Description: Experiments were also conducted to investigate the effects of various NO pressures, exposure times, and flow rates on tissue viability using MTT assays. An MTT assay is a colorimetric assay for assessing cell viability. NAD(P)H-dependent cellular oxidoreductase enzymes may, under defined conditions, reflect the number of viable cells present. These enzymes are capable of reducing the tetrazolium dye MTT 3-(4,5-dimethylthiazol-2-yl)-2,5-diphenyltetrazolium bromide to its insoluble formazan, which has a purple color. Other closely related tetrazolium dyes including XTT, MTS and the WSTs, can also be used. Tetrazolium-based dye assays can also be used to measure cytotoxicity (loss of viable cells) or cytostatic activity (shift from proliferation to quiescence) of potential medicinal agents and toxic materials.

## [N]=O [gNO, Nitric Oxide]
[1]; NO at 0.25 ATM, 90 minutes, infected 24 hours
  bioburden reduction: sufficient to reduce bioburden
[1]; NO at 0.3 ATM, 90 minutes, infected 24 hours
  bioburden reduction: sufficient to reduce bioburden
[1]; S. aureus (biofilm-forming), 1% NO, 90 min, 1 ATM, infected 24 hours
  log reduction in bioburden: ~3 log
[1]; S. aureus, 60 minutes, 1 ATM
  reduction of bioburden compared to controls: did not show significant reduction of bioburden
[1]; Staphylococcus, 1% NO, 1 ATM, 120 minutes, 24 hours of infection
  bacterial bioburden (CFUs): completely eliminated
[1]; pressurized gNO at 1 ATM compared to 0 ATM, 90 minutes, infected 24 hours
  bioburden (total CFUs): did significantly reduce bioburden
[2]; A. baumannii, 1% NO, 90 min, infected 24 hours
  log reduction in bioburden: 5-6 log
[2]; A. baumannii, 60 minutes
  reduction of bioburden compared to controls: effective
[2]; Acinetobacter, 1% NO, 120 minutes, 24 hours of infection
  bacterial bioburden (CFUs): completely eliminated
[3]; 1% NO, 120 minutes, 24 hours of infection
  bacterial bioburden (CFUs): completely eliminated
[3]; 1% NO, 90 min, infected 24 hours
  log reduction in bioburden: 5-6 log
[3]; 60 minutes
  reduction of bioburden compared to controls: did not show significant reduction of bioburden
[4]; P. aeruginosa, 1% NO, 90 min, infected 24 hours
  log reduction in bioburden: 5-6 log
[4]; P. aeruginosa, 60 minutes
  reduction of bioburden compared to controls: effective
[4]; Pseudomonas, 1% NO, 120 minutes, 24 hours of infection
  bacterial bioburden (CFUs): completely eliminated
[5]; 1% NO with or without pressure, as exposure time decreased
  tissue viability (MTT): viability increased
[5]; combination of pressurized gNO and increasing concentrations of NO
  tissue viability (MTT): caused a decrease in viability
